How the values were obtained:
Prothrombin = Prothrombin (Homo sapiens, UniProt P00734)
Description: Inhibitory activity against thrombin

Coagulation factor X = Coagulation factor X (Homo sapiens, UniProt P00742); assay: Inhibitory activity against Coagulation factor Xa
Coagulation factor X, sequence (P00742 41-179 limits assumed): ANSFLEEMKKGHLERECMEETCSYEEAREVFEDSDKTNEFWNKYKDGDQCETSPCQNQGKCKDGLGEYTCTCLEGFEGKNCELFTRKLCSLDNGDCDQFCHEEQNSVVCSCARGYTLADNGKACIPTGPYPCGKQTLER
Coagulation factor X, sequence (P00742 235-488 limits assumed): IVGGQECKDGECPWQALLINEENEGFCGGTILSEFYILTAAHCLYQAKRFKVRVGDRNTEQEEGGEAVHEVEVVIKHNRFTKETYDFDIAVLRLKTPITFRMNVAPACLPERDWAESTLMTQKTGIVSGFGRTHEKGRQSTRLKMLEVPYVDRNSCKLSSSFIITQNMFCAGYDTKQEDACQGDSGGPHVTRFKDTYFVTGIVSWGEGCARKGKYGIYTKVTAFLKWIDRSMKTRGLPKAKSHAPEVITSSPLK

Ki (Coagulation factor X)	Compound	Ki (Prothrombin)
	C[C@H]1CNc2cc(S(=O)(=O)N[C@H](CCCNC(=N)N)C(=O)N3CCCCC3C(=O)O)ccc2C1 (stereo partly drawn)	0.019 µM
0.013 µM	CC(=N)N1CCC(Oc2ccc(C(Cc3ccc4ccc(C(=N)N)cc4c3)C(=O)O)cc2)CC1 (stereo not drawn)	
	O=S(=O)(Nc1cccc(OCCNc2ccncc2)c1)c1ccccc1	0.023 µM

Reference: ChEMBL document CHEMBL1132353, “New 4-point pharmacophore method for molecular similarity and diversity applications: overview of the method and applications, including a novel approach to the design of combinatorial libraries containing privileged substructures” (J Med Chem, 1999)
